# Reference: patent US20240190864A1 (YA THERAPEUTICS INC, priority 2021, published 2024)
# How the values were obtained:
# BTK = BTK (Homo sapiens, UniProt Q06187); test: BTK Kinase Test; type: biochemical; settings: BTK kinase inhibitory activity; enzyme with compound 30 min, ATP 50 μM, ULight poly GT substrate
# Protocol: Dilute 350 ng/uL BTK mother solution with kinase buffer solution (50 mM HEPES, 10 mM MgCl2, 2 mM DTT, 1 mM EGTA, 0.01% Tween 20), and add 6 μL 1.67×0.134 ng/μL working solution (final concentration 0.08 ng/μL), using the nanoliter sampler, add different compounds dissolved by DMSO into the pores, so that the final concentration of the compound is 1000 nM-0.244 nM, and the final concentration of the positive drug is 50 nM-0.0122 nM. Four times the gradient, a total of seven concentrations are available. At the same time, set up blank control pores (without enzyme) and negative control pores (with enzyme, with solvent DMSO), and set up two double pores. After the enzyme reacts with compound or solvent for 30 min, 5×250 μM ATP (final concentration is 50 μM) and 5×0.5 μM Substrate (final concentration 0.1 μμM. ULight poly GT), mix at 1:1, 4 per hole μL is added into the hole; after sealing, add […] to each hole after reacting at room temperature for 2 hours μL 4×8 nM detection reagent (final concentration is 2 nM, Ab), incubate at room temperature for 1 hour; PE instrument reading board (excitation […], emission 665 nm). Calculate the inhibition rate and calculate the IC50 value.
# [1] = tested on: Diffuse large B cell lymphoma cell strain TMD-8; test: Tumor Cell Proliferation Inhibition Assay (CellTiter-Glo); type: cell-based; settings: Homo sapiens, TMD8; TMD-8 cells, incubated with compound 72 hours, 10% fetal calf serum, ATP content
# Protocol: Cell viability was evaluated by measuring a content of triphosadenine (ATP) by using CellTiter-Glo luminescent cell viability assay kit method (Promega, #G7572, Madison, WI). Diffuse large B cell lymphoma cell strain TMD-8 cell strain is purchased from American Type Culture Collection (ATCC). After the cells were digested from a cell culture dish by pancreatin and re-suspended by DPBS culture medium, a Scepter automatic cell counter (Millipore, #PHCC00000) was used for counting to measure a cell density. The cells were diluted to be a solution containing 44,000 cells per milliliter. The cell solution with the adjusted density was added into a cell assay plate with 90 μl per well. The well plate was placed to an incubator with 5% CO2 at 37° C. to be incubated for 24 hours and then added with the compound to be tested with different concentrations. The cells and the compound were together incubated for 72 hours in the presence of 10% fetal calf serum. The content of ATP was measured by using CellTiter-Glo® Luminescent Cell Viability Assay kit (referring to manufacturer's instruction) to evaluate the inhibition to the cell growth. Briefly speaking, each well was added with 30 μl of CellTiter-Glo® reagent, the plate was shaken for 10 minutes to induce the cells to be lysed, and fluorescence signal was detected and recorded by fluorescence/chemiluminescence analyzer Fluoroskan Ascent FL (Thermo Scientific Fluoroskan Ascent FL). The maximal signal value was obtained from cells processed by dimethyl sulfoxide (DMSO) for 72 or 120 hours. The minimal signal value obtained from separate culture medium (wherein the number of cells was zero) was defined as 0. Inhibition ratio %=(maximal signal value−compound signal value)/(maximal signal value−minimal signal value)×100%. The data was processed by using GraphPad Prism V5.0 (GraphPad Software, San Diego, CA) software. IC50 value was fitted and calculated via S-shaped dose-response curve.
# Sequence of BTK (Q06187 whole entry): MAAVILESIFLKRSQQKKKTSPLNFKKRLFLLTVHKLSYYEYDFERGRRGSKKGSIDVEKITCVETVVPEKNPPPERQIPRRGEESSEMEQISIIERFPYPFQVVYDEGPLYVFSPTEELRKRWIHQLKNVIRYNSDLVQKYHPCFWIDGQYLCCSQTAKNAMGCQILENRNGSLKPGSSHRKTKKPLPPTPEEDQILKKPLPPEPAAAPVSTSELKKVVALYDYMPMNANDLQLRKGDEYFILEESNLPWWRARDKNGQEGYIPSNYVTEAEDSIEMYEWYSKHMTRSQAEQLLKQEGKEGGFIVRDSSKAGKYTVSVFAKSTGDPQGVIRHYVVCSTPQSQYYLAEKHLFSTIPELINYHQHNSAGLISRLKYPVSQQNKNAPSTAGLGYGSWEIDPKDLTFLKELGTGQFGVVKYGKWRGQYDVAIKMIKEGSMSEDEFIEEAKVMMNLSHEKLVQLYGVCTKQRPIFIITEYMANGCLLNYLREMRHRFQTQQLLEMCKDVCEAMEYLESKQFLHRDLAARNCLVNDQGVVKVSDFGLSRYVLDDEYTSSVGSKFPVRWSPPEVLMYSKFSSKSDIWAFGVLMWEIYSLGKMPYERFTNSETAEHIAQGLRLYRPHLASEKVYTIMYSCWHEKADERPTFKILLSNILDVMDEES
IC50 (BTK),IC50 [1],Compound
≤ 10 nM,–,"CC#CC(=O)N[C@H]1CCCN(c2ncc(C(N)=O)c3[nH]cnc23)C1 [Compound 36, (S)-4-(3-(but-2-ynamido)piperidin-1-yl)-1H-imidazo[4,5-c]pyridine-7-carboxamide]"
≤ 10 nM,–,"CC#CC(=O)N[C@H]1CCCN(c2nc(-c3ccc(Oc4ccccc4)cc3)c(C(N)=O)c3[nH]c(C)nc23)C1 [Compound 19, (S)-4-(3-(but-2-ynamido)piperidin-1-yl)-2-methyl-6-(4-phenoxyphenyl)-1H-imidazo[4,5-c]pyridine-7-carboxamide]"
≤ 10 nM,–,"C=CC(=O)N[C@H]1CCCN(c2nc(-c3ccc(Oc4ccccc4)cc3)c(C(N)=O)c3[nH]c(=O)[nH]c23)C1 [Compound 3, (S)-4-(3-acrylamidopiperidin-1-yl)-2-oxo-6-(4-phenoxyphenyl)-2,3-dihydro-1H-imidazo[4,5-c]pyridine-7-carboxamide]"
≤ 10 nM,≤ 10 nM,"C=CC(=O)N1CCC(c2ncc(C(N)=O)c3[nH]c(=O)[nH]c23)CC1 [Compound 40, 4-(1-acryloylpiperidin-4-yl)-2-oxo-2,3-dihydro-1H-imidazo[4,5-c]pyridine-7-carboxamide]"
≤ 10 nM,≤ 10 nM,"CC#CC(=O)N[C@H]1CCCN(c2nc(-c3ccc(Oc4ccccc4)cc3)c(C(N)=O)c3[nH]ccc23)C1 [Compound 23, (S)-4-(3-(but-2-ynamido)piperidin-1-yl)-6-(4-phenoxyphenyl)-1H-pyrrolo[3,2-c]pyridine-7-carboxamide]"
≤ 10 nM,–,"CC#CC(=O)N[C@@H]1CCCN(c2nc(-c3ccc(Oc4ccccc4)cc3)c(C(N)=O)c3[nH]ccc23)C1 [Compound 24, (R)-4-(3-(but-2-ynamido)piperidin-1-yl)-6-(4-phenoxyphenyl)-1H-pyrrolo[3,2-c]pyridine-7-carboxamide]"
≤ 10 nM,–,"CC#CC(=O)N[C@H]1CCN(c2nc(-c3ccc(Oc4ccccc4)cc3)c(C(N)=O)c3[nH]c(=O)[nH]c23)C1 [Compound 5, (S)-4-(3-(but-2-ynamido)pyrrolidin-1-yl)-2-oxo-6-(4-phenoxyphenyl)-2,3-dihydro-1H-imidazo[4,5-c]pyridine-7-carboxamide]"
≤ 10 nM,–,"CC#CC(=O)N[C@H]1CCCN(c2nc(-c3ccc(Oc4ccccc4)cc3)c(C(N)=O)c3[nH]cnc23)C1 [Compound 18, (S)-4-(3-(but-2-ynamido)piperidin-1-yl)-6-(4-phenoxyphenyl)-1H-imidazo[4,5-c]pyridine-7-carboxamide]"
≤ 10 nM,–,"CC#CC(=O)N[C@H]1CCCN(c2nc(-c3ccc(Oc4ccccc4)cc3)c(C(N)=O)c3[nH]c(=O)[nH]c23)C1 [Compound 1, (S)-4-(3-(but-2-ynamido)piperidin-1-yl)-2-oxo-6-(4-phenoxyphenyl)-2,3-dihydro-1H-imidazo[4,5-c]pyridine-7-carboxamide]"
≤ 10 nM,–,"CC#CC(=O)N[C@@H]1CCCN(c2nc(-c3ccc(Oc4ccccc4)cc3)c(C(N)=O)c3[nH]c(=O)[nH]c23)C1 [Compound 6, (R)-4-(3-(but-2-ynamido)piperidin-1-yl)-2-oxo-6-(4-phenoxyphenyl)-2,3-dihydro-1H-imidazo[4,5-c]pyridine-7-carboxamide]"
≤ 10 nM,≤ 10 nM,"CC#CC(=O)N[C@H]1CCCN(c2ncc(C(N)=O)c3[nH]c(=O)[nH]c23)C1 [Compound 38, (S)-4-(3-(but-2-ynamido)piperidin-1-yl)-2-oxo-2,3-dihydro-1H-imidazo[4,5-c]pyridine-7-carboxamide]"
≤ 10 nM,≤ 10 nM,"C=CC(=O)N1CCC[C@@H](c2nc(-c3ccc(Oc4ccccc4)cc3)c(C(N)=O)c3[nH]ccc23)C1 [Compound 27, (R)-4-(1-acryloylpiperidin-3-yl)-6-(4-phenoxyphenyl)-1H-pyrrolo[3,2-c]pyridine-7-carboxamide]"
≤ 10 nM,–,"CC#CC(=O)N[C@H]1CCCN(c2ncc(C(N)=O)c3[nH]c(=O)c(=O)[nH]c23)C1 [Compound 28, (S)-5-(3-(but-2-ynamido)piperidin-1-yl)-2,3-dioxo-1,2,3,4-tetrahydropyrido[3,4-b]pyrazine-8-carboxamide]"
≤ 10 nM,≤ 10 nM,"C=CC(=O)N1CCC[C@H](c2nc(-c3ccc(Oc4ccccc4)cc3)c(C(N)=O)c3[nH]ccc23)C1 [Compound 26, (S)-4-(1-acryloylpiperidin-3-yl)-6-(4-phenoxyphenyl)-1H-pyrrolo[3,2-c]pyridine-7-carboxamide]"
≤ 10 nM,–,"CC#CC(=O)N[C@@H]1CCN(c2nc(-c3ccc(Oc4ccccc4)cc3)c(C(N)=O)c3[nH]c(=O)[nH]c23)C1 [Compound 9, (R)-4-(3-(but-2-ynamido)pyrrolidin-1-yl)-2-oxo-6-(4-phenoxyphenyl)-2,3-dihydro-1H-imidazo[4,5-c]pyridine-7-carboxamide]"
≤ 10 nM,–,"C=CC(=O)N1CCC(c2nc(-c3ccc(Oc4ccccc4)cc3)c(C(N)=O)c3[nH]c(=O)[nH]c23)CC1 [Compound 20, 4-(1-acryloylpiperidin-4-yl)-2-oxo-6-(4-phenoxyphenyl)-2,3-dihydro-1H-imidazo[4,5-c]pyridine-7-carboxamide]"
≤ 10 nM,–,"CC#CC(=O)N[C@H]1CCCN(c2nc(-c3ccc(Oc4ccccc4)cc3)c(C(N)=O)c3[nH]ncc23)C1 [Compound 2, (S)-4-(3-(but-2-ynamido)piperidin-1-yl)-6-(4-phenoxyphenyl)-1H-pyrazolo [4,5-c]pyridine-7-carboxamide]"
≤ 10 nM,≤ 10 nM,"C=CC(=O)N1CCC(c2nc(-c3ccc(Oc4ccccc4)cc3)c(C(N)=O)c3[nH]ccc23)CC1 [Compound 25, 4-(1-acryloylpiperidin-4-yl)-6-(4-phenoxyphenyl)-1H-pyrrolo [3,2-c]pyridine-7-carboxamide]"

Compound,IC50 (BTK),IC50 [1]
"(R)-4-(3-(but-2-ynamido)piperidin-1-yl)-6-(4-phenoxyphenyl)-1H-pyrazolo [4,3-c]pyridine-7-carboxamide [Compound 7]",≤ 10 nM,–
"(S)-4-(3-acrylamidopyrrolidin-1-yl)-2-oxo-6-(4-phenoxyphenyl)-2,3-dihydro-1H-imidazo[4,5-c]pyridine-7-carboxamide [Compound 4]",≤ 10 nM,–
"(R)-4-(3-acrylamidopiperidin-1-yl)-2-oxo-6-(4-phenoxyphenyl)-2,3-dihydro-1H-imidazo[4,5-c]pyridine-7-carboxamide [Compound 8]",≤ 10 nM,–
